# How the values were obtained:
# Assay in all cases: NCI60 screening
# Type in all cases: cell-based
# MOLT-4 = conditions: Homo sapiens, Leukemia panel
# Source text: (§1) With these findings, we submitted compound 8t to National Cancer Institute (NCI) to evaluate their antitumor efficacy against 60 human cancer cell lines.
# CCRF-CEM = conditions: Homo sapiens, Leukemia panel
# Source text: as §1
# HS 578T = conditions: Homo sapiens, Breast Cancer panel
# Source text: as §1
# A498 = conditions: Homo sapiens, Renal Cancer panel
# Source text: as §1
# MDA-MB-231 = conditions: Homo sapiens, Breast Cancer panel
# Source text: as §1
# OVCAR-5 = conditions: Homo sapiens, Ovarian Cancer panel
# Source text: as §1
smiles,measurement,setting,value
O=C(Nc1ccc(N2CCNCC2)cc1)c1n[nH]cc1Nc1ncnc2sc3c(c12)CCC3 [Compound 8t],GI50,MOLT-4,0.08 µM
same,GI50,CCRF-CEM,0.22 µM
same,GI50,HS 578T,0.1 µM
same,GI50,A498,0.14 µM
same,GI50,MDA-MB-231,1.93 µM
same,GI50,OVCAR-5,0.27 µM
